According to ChEMBL document CHEMBL3860060, “Discovery and Optimization of 1-Phenoxy-2-aminoindanes as Potent, Selective, and Orally Bioavailable Inhibitors of the Na+/H+ Exchanger Type 3 (NHE3)” (J Med Chem, 2016):
Blank lines part the entries; values can stand above or below the compound they belong to.

Tests used:
Cytochrome P450 2D6 = Cytochrome P450 2D6 (Homo sapiens, UniProt P10635)
Description: Inhibition of CYP2D6 in pooled human hepatic microsomes using dextromethorphan substrate in presence of NADPH

CYP2D6 = CYP2D6 (Homo sapiens, UniProt P10635); assay: Inhibition of CYP2D6 in pooled human hepatic microsomes at 10 uM using dextromethorphan substrate in presence of NADPH; format: ADME; details: pooled human liver microsomes, probe dextromethorphan
Chain of CYP2D6 (P10635 whole entry): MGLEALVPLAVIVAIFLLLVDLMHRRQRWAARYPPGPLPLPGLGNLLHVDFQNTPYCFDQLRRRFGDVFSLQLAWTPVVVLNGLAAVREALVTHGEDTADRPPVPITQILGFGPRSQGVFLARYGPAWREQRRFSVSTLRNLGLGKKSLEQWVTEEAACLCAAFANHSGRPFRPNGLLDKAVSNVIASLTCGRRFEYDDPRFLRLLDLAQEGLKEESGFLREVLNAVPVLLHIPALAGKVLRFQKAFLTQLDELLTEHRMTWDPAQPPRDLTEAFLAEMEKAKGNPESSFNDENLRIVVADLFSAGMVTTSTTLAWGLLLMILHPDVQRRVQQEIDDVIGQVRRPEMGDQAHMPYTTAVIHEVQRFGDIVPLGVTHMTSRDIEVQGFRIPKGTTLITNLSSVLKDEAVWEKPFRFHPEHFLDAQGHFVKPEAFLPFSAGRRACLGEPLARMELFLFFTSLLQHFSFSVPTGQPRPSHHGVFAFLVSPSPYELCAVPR

[1] = Permeability in human Caco2/TC7 cells assessed as total flux at 20 uM incubated for 2 hrs by LC-MS/MS method; format: ADME, cell-based; details: Caco-2, read-out: permeability
[2] = molecular target: T1, Sodium/hydrogen exchanger 3 (Homo sapiens, UniProt P48764); assay: Inhibition of human NHE3 expressed in LAP1 cell assessed as intracellular pH recovery measured for 2 mins by CECF-AM dye based FLIPR assay
T1 sequence (P48764 whole entry): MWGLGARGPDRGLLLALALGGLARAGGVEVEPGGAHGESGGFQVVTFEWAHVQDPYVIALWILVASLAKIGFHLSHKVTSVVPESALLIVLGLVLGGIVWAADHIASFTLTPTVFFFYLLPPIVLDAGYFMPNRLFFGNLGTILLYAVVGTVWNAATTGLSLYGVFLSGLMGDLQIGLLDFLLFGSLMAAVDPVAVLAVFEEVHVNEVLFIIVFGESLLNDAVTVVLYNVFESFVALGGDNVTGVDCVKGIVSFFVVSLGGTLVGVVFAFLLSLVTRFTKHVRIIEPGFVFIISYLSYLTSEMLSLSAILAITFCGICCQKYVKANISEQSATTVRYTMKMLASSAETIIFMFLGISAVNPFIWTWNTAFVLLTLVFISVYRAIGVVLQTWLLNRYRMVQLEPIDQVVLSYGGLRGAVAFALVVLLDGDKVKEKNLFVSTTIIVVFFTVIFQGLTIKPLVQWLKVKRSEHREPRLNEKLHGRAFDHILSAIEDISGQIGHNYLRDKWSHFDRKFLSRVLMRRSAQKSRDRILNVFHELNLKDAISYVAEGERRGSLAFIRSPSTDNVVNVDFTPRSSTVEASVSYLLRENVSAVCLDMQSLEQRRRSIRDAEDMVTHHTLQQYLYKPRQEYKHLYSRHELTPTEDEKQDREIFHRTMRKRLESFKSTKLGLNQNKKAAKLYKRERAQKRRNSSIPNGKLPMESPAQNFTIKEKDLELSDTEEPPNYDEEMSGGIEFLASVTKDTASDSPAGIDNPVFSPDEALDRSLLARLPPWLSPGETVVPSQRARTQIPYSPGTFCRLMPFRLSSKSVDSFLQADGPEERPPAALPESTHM

[3] = Drug metabolism in human hepatic microsomes assessed as compound lability in presence of CYP3A4 inhibitor ketoconazole by LC-MS/MS method; format: ADME, Microsome; details: liver microsomes, with ketoconazole (CYP3A4 inhibitor), concentration not stated, read-out: Drug metabolism
[4] = Inhibition of PDE4 (unknown origin); design: species or system Homo sapiens
[5] = Drug metabolism in rabbit hepatic microsomes assessed as glucuronidation by LC-MS/MS method; format: ADME, Oryctolagus cuniculus, Liver, Microsome
[6] = Toxicity in Xenopus laevis at 62.5 ug/ml by FETAX assay
[7] = Drug metabolism in monkey hepatic microsomes assessed as glucuronidation by LC-MS/MS method; format: ADME, Macaca mulatta, Liver, Microsome; details: rhesus monkey
[8] = molecular target: Sodium/hydrogen exchanger 3 (Rattus norvegicus, UniProt P26433); assay: Inhibition of rat NHE3 expressed in LAP1 cell assessed as intracellular pH recovery measured for 2 mins by CECF-AM dye based FLIPR assay
Chain of Sodium/hydrogen exchanger 3 (Rattus norvegicus, UniProt P26433) (P26433 whole entry): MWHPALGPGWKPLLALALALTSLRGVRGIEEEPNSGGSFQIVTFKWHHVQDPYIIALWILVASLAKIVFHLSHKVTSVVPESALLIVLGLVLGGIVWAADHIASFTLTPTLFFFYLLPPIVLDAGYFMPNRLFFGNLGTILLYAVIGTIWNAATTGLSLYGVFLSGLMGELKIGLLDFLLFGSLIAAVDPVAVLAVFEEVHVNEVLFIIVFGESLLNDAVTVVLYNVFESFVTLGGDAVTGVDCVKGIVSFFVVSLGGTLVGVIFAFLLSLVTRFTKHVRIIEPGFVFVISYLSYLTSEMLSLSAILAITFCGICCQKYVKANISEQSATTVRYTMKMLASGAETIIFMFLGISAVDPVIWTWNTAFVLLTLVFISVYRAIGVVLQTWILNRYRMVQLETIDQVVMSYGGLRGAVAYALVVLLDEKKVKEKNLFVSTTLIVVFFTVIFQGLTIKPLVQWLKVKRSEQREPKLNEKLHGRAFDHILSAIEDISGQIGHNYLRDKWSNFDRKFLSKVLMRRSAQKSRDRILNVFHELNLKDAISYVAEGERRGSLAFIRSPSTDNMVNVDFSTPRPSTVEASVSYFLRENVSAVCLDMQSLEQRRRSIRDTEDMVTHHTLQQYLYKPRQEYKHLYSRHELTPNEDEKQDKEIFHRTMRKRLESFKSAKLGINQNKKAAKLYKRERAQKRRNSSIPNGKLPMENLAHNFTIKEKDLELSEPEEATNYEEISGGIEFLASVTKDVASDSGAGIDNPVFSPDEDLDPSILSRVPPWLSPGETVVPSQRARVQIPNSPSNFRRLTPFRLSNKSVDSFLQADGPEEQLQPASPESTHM

[9] = Drug metabolism in guinea pig hepatic microsomes assessed as glucuronidation by LC-MS/MS method; format: ADME, Cavia porcellus, Liver, Microsome
[10] = Drug metabolism in human hepatic microsomes assessed as glucuronidation by LC-MS/MS method; format: ADME, Liver, Microsome
[11] = Drug metabolism in rat hepatic microsomes assessed as glucuronidation by LC-MS/MS method; format: ADME, Liver, Microsome
Cytochrome P450 2C9 = Cytochrome P450 2C9 (Homo sapiens, UniProt P11712); assay: Inhibition of CYP2C9 in pooled human hepatic microsomes using diclofenac substrate in presence of NADPH; format: ADME, Liver
Chain of Cytochrome P450 2C9 (P11712 whole entry): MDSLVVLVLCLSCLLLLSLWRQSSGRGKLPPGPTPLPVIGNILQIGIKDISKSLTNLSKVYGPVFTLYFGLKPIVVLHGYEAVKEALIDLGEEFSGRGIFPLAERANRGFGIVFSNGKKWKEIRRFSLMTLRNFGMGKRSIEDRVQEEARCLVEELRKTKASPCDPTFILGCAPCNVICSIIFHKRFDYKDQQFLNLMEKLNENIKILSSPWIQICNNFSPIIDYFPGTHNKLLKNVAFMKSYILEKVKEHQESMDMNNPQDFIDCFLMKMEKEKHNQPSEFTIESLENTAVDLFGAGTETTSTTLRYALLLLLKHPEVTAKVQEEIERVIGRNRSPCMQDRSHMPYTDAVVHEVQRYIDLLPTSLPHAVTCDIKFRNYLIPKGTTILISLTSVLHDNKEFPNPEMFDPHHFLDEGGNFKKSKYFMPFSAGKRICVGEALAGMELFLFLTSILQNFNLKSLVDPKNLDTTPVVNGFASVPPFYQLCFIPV

[12] = Drug metabolism in rat hepatic microsomes assessed as compound lability by LC-MS/MS method; format: ADME, Microsome; details: liver microsomes, read-out: Drug metabolism
[13] = Inhibition of cat NHE3 expressed in LAP1 cell assessed as intracellular pH recovery measured for 2 mins by CECF-AM dye based FLIPR assay; details: Felis catus, LAP1, 2 min
[14] = Drug metabolism in mouse hepatic microsomes assessed as compound lability by LC-MS/MS method; format: ADME, Microsome; details: liver microsomes, read-out: Drug metabolism
[15] = molecular target: T2, Sodium/hydrogen exchanger isoform 3 (Sus scrofa, UniProt Q9XSD0); assay: Inhibition of pig NHE3 expressed in LAP1 cell assessed as intracellular pH recovery measured for 2 mins by CECF-AM dye based FLIPR assay
T2 sequence (Q9XSD0 whole entry): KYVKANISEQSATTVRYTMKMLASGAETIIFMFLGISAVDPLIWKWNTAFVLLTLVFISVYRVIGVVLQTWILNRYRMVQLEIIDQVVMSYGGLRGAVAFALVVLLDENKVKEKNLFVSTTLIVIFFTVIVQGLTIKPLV

[16] = Drug metabolism in dog hepatic microsomes assessed as glucuronidation by LC-MS/MS method; format: ADME, Canis lupus familiaris, Liver, Microsome
[17] = Drug metabolism in hamster hepatic microsomes assessed as glucuronidation by LC-MS/MS method; format: ADME, Liver, Microsome; details: cricetinae
[18] = molecular target: T3, Sodium/hydrogen exchanger 5 (Homo sapiens, UniProt Q14940); assay: Inhibition of human NHE5 expressed in LAP1 cell assessed as intracellular pH recovery measured for 2 mins by CECF-AM dye based FLIPR assay
T3 sequence (Q14940 whole entry): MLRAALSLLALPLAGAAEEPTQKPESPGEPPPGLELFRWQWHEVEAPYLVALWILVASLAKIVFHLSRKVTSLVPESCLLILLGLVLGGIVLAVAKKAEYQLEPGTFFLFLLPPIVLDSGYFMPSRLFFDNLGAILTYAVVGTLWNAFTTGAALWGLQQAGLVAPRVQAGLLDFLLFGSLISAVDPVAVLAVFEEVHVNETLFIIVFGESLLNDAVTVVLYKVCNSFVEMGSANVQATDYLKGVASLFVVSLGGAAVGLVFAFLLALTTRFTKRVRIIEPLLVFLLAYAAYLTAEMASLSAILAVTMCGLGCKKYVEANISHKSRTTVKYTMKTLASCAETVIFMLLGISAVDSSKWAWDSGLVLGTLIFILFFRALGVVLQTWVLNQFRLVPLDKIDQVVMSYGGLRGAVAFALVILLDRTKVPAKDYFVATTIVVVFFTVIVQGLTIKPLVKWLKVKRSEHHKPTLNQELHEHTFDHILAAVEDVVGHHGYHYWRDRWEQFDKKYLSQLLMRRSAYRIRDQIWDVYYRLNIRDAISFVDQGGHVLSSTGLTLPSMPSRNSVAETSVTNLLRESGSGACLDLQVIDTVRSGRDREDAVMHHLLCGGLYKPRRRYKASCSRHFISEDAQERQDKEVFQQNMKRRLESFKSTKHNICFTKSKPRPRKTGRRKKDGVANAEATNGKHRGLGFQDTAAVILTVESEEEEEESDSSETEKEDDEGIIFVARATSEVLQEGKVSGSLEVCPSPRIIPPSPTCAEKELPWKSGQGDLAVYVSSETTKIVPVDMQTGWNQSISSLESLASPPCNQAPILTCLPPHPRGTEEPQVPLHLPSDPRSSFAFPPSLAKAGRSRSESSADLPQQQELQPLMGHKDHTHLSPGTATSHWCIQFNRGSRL

[19] = Drug metabolism in rabbit hepatic microsomes assessed as compound lability by LC-MS/MS method; format: ADME, Oryctolagus cuniculus, Microsome; details: liver microsomes, read-out: Drug metabolism
[20] = molecular target: T4, Sodium/hydrogen exchanger 2 (Homo sapiens, UniProt Q9UBY0); assay: Inhibition of human NHE2 expressed in LAP1 cell assessed as intracellular pH recovery measured for 2 mins by CECF-AM dye based FLIPR assay
T4 sequence (Q9UBY0 whole entry): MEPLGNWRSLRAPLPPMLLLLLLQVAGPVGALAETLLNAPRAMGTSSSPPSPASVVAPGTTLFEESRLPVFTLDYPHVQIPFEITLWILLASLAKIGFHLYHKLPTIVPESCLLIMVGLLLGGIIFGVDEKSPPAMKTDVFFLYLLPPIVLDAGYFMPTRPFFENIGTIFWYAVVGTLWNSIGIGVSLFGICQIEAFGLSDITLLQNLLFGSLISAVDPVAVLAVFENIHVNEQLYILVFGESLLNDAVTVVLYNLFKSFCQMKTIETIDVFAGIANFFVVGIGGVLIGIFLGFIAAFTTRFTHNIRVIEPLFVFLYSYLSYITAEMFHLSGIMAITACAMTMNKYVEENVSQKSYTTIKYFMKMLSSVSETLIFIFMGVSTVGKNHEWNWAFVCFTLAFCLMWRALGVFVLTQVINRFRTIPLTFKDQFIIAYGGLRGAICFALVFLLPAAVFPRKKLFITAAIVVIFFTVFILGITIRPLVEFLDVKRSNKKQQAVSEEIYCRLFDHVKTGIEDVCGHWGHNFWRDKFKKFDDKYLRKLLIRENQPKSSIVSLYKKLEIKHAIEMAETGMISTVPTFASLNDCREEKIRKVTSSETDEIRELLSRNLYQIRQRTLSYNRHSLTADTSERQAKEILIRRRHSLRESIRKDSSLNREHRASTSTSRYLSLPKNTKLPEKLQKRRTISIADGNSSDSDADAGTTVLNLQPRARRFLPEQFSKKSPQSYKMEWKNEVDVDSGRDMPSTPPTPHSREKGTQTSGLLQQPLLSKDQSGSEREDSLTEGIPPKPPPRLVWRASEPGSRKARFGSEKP

[21] = Drug metabolism in pig hepatic microsomes assessed as glucuronidation by LC-MS/MS method; format: ADME, Sus scrofa, Liver, Microsome
[22] = Drug metabolism in macaque hepatic microsomes assessed as compound lability by LC-MS/MS method; format: ADME, Macaca mulatta, Microsome; details: rhesus monkey, liver microsomes; read-out: Drug metabolism
[23] = Drug metabolism in human hepatic microsomes assessed as compound lability by LC-MS/MS method; format: ADME, Microsome; details: liver microsomes, read-out: Drug metabolism
[24] = Drug metabolism in mouse hepatic microsomes assessed as glucuronidation by LC-MS/MS method; format: ADME, Liver, Microsome
Salmonella typhimurium = assay: Genotoxicity in Salmonella typhimurium at 300 ug/ml by AMES II test; format: toxicity, organism-based; details: salmonella enterica subsp. enterica serovar typhimurium
[25] = molecular target: Sodium/hydrogen exchanger 1 (Homo sapiens, UniProt P19634); assay: Inhibition of human NHE1 expressed in LAP1 cell assessed as intracellular pH recovery measured for 2 mins by CECF-AM dye based FLIPR assay
Chain of Sodium/hydrogen exchanger 1 (P19634 whole entry): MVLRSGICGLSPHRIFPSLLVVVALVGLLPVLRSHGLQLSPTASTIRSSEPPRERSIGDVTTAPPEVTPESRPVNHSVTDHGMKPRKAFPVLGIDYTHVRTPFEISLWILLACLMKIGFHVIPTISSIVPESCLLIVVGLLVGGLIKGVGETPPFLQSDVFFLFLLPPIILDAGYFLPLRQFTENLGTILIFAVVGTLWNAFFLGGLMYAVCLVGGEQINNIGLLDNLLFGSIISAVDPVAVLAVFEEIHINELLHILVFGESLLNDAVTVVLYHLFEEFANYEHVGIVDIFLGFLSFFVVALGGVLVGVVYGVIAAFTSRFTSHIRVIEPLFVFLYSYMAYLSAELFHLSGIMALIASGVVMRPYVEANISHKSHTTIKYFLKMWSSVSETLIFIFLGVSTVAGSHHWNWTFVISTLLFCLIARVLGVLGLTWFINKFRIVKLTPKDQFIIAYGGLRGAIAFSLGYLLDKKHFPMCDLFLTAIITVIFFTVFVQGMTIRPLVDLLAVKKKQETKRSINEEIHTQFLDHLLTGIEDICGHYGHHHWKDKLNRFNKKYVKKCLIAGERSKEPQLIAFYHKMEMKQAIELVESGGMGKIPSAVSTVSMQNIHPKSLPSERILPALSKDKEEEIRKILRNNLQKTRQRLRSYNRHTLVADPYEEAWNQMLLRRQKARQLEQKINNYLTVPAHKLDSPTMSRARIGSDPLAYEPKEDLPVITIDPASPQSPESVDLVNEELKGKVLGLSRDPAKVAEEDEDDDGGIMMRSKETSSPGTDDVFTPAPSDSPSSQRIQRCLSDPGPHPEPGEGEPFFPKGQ

[26] = Drug metabolism in hamster hepatic microsomes assessed as compound lability by LC-MS/MS method; format: ADME, Microsome; details: cricetinae, liver microsomes; read-out: Drug metabolism
[27] = Drug metabolism in guinea pig hepatic microsomes assessed as compound lability by LC-MS/MS method; format: ADME, Cavia porcellus, Microsome; details: liver microsomes, read-out: Drug metabolism
[28] = Drug metabolism in mini pig hepatic microsomes assessed as glucuronidation by LC-MS/MS method; format: ADME, Sus scrofa, Liver, Microsome
[29] = Clearance in human hepatocytes assessed per million cells at 5 uM by LC-MS/MS method; format: ADME, cell-based, Hepatocyte
[30] = Inhibition of GABA-gated chloride channel (unknown origin); design: species or system Homo sapiens
[31] = Drug metabolism in Landrance pig hepatic microsomes assessed as compound lability by LC-MS/MS method; format: ADME, Sus scrofa, Microsome; details: Landrace, liver microsomes, read-out: Drug metabolism

Chain of Cytochrome P450 2D6 (P10635 whole entry): as the sequence (P10635 whole entry) above

IC50 (Cytochrome P450 2D6): > 10000 nM
inhibition at 10 µM (CYP2D6): 25%
Papp at 2 h, 20 µM [1]: 0.3 ×10⁻⁶ cm/s
IC50 [2]: 23 nM
Structure (SMILES): Cc1nnc(C)n1-c1ccc(O[C@H]2c3cc(Cl)cc(Cl)c3C[C@@H]2N2CCCNCC2)cc1

IC50 (Cytochrome P450 2D6): > 10000 nM
inhibition at 10 µM (CYP2D6): 22%
Papp at 2 h, 20 µM [1]: 0.2 ×10⁻⁶ cm/s
IC50 [2]: 17 nM
Structure (SMILES): Cc1nnc(C)n1-c1ccc(O[C@H]2c3cc(Cl)cc(Cl)c3C[C@@H]2N2CCCN(C)CC2)cc1

metabolised [3]: 5%
IC50 [4]: 6600 nM
Drug metabolism [5]: Metabolite_Notdetected
Drug metabolism [7]: Metabolite_Detected
IC50 [8]: 10.2 nM
Drug metabolism [9]: Metabolite_Notdetected
Drug metabolism [10]: Metabolite_Notdetected
Drug metabolism [11]: Metabolite_Notdetected
IC50 (Cytochrome P450 2C9): 900 nM
metabolised [12]: 25%
IC50 [13]: 6.1 nM
metabolised [14]: 25%
IC50 [15]: 7.8 nM
Drug metabolism [16]: Metabolite_Notdetected
Drug metabolism [17]: Metabolite_Notdetected
IC50 [18]: 291 nM
metabolised [19]: 25%
IC50 [20]: > 100000 nM
Drug metabolism [21]: Metabolite_Detected
metabolised [22]: > 60%
metabolised [23]: 25%
Drug metabolism [24]: Metabolite_Notdetected
IC50 [25]: > 100000 nM
metabolised [26]: > 60%
metabolised [27]: 25%
Drug metabolism [28]: Metabolite_Detected
CLH [29]: 0.12 mL/h
IC50 [30]: 12000 nM
metabolised [31]: 25%
Structure (SMILES): Cc1nnc(C)n1-c1ccc(O[C@H]2c3cc(Cl)cc(Cl)c3C[C@@H]2N2CC[C@@H](O)C2)c(F)c1.Cl
Activity [6]: Non-Toxic
Activity (Salmonella typhimurium): Non-Toxic
